The kinase profiling compilation of Christmann-Franck et al. (2016)

Legend:
Experiment in all cases: radiometric filter-binding kinase assay, Kinase HotSpot
Conditions in all cases: compound 0.5 µM; ATP 10 µM
AKT2 (human) = AKT2 (human) (UniProt P31751)
BMX (human) = BMX (human) (UniProt P51813)
CDK5 CDK5R1 p25 (human) = CDK5 CDK5R1 p25 (human) (UniProt Q00535+Q15078)
CDK6 CCND3 (human) = CDK6 CCND3 (human) (UniProt P30281+Q00534)
CHEK1 (human) = CHEK1 (human) (UniProt O14757)
CSNK1G2 (human) = CSNK1G2 (human) (UniProt P78368)
DYRK2 (human) = DYRK2 (human) (UniProt Q92630)
EPHA5 (human) = EPHA5 (human) (UniProt P54756)
EPHA7 (human) = EPHA7 (human) (UniProt Q15375)
EPHB3 (human) = EPHB3 (human) (UniProt P54753)
FYN (human) = FYN (human) (UniProt P06241)
HCK (human) = HCK (human) (UniProt P08631)
HIPK3 (human) = HIPK3 (human) (UniProt Q9H422)
MAP3K8 (human) = MAP3K8 (human) (UniProt P41279)
MAP4K4 (human) = MAP4K4 (human) (UniProt O95819)
MAPK3 (human) = MAPK3 (human) (UniProt P27361)
MARK3 (human) = MARK3 (human) (UniProt P27448)
MARK4 (human) = MARK4 (human) (UniProt Q96L34)
MATK (human) = MATK (human) (UniProt P42679)
MELK (human) = MELK (human) (UniProt Q14680)
MET (human) = MET (human) (UniProt P08581)
[1] = test system: MKNK1 (human), Q9BUB5 [T385D; 165-205 del]
MKNK2 (human) = MKNK2 (human) (UniProt Q9HBH9)
MST4 (human) = MST4 (human) (UniProt Q9P289)
NEK11 (human) = NEK11 (human) (UniProt Q8NG66)
NUAK2 (human) = NUAK2 (human) (UniProt Q9H093)
PBK (human) = PBK (human) (UniProt Q96KB5)
PIM1 (human) = PIM1 (human) (UniProt P11309)
PKN1 (human) = PKN1 (human) (UniProt Q16512)
PNCK (human) = PNCK (human) (UniProt Q6P2M8)
PRKCD (human) = PRKCD (human) (UniProt Q05655)
PRKCH (human) = PRKCH (human) (UniProt P24723)
PRKX (human) = PRKX (human) (UniProt P51817)
ROCK1 (human) = ROCK1 (human) (UniProt Q13464)
RPS6KA1 KD1 KD2 (human) = RPS6KA1 KD1 KD2 (human) (UniProt Q15418)
RPS6KA2 KD1 KD2 (human) = RPS6KA2 KD1 KD2 (human) (UniProt Q15349)
STK10 (human) = STK10 (human) (UniProt O94804)
STK11 (human) = STK11 (human) (UniProt Q15831)
TSSK2 (human) = TSSK2 (human) (UniProt Q96PF2)
[2] = target: TYK2 JH1 catalytic (human) (UniProt P29597)
VRK1 (human) = VRK1 (human) (UniProt Q99986)
STK17A (human) = STK17A (human) (UniProt Q9UEE5)

Sequence of AKT2 (human) (P31751 whole entry, looked up): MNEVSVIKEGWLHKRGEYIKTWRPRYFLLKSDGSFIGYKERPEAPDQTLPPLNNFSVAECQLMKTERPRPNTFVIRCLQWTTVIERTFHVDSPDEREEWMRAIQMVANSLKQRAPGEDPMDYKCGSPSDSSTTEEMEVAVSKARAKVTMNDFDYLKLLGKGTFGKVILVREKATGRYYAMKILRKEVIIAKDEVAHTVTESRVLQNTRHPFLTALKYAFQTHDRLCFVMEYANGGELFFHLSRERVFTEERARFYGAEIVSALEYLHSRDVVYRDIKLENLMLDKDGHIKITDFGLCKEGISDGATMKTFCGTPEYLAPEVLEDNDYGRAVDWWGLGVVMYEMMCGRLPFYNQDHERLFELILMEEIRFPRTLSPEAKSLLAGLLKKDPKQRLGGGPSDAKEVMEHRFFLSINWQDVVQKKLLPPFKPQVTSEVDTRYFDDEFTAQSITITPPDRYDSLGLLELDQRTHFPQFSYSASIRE
Sequence of BMX (human) (P51813 whole entry, looked up): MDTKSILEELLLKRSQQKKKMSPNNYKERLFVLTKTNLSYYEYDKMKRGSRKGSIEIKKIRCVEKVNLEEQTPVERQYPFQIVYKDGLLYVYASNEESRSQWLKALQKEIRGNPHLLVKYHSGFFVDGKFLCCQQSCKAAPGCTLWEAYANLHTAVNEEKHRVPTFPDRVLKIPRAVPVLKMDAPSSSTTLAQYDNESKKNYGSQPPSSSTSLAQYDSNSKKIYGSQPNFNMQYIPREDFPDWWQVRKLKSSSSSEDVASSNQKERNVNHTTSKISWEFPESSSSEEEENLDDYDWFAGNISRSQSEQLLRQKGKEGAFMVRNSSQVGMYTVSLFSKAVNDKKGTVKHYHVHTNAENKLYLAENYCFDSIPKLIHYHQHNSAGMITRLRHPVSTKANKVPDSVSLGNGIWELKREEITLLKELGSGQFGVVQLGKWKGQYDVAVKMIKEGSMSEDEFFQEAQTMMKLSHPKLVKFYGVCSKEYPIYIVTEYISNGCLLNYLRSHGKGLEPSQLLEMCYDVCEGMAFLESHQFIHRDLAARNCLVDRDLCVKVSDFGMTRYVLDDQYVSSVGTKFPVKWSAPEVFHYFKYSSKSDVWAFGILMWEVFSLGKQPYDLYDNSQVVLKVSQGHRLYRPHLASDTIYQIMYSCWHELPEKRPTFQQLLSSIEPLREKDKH
Sequence of MAP3K8 (human) (P41279 whole entry, looked up): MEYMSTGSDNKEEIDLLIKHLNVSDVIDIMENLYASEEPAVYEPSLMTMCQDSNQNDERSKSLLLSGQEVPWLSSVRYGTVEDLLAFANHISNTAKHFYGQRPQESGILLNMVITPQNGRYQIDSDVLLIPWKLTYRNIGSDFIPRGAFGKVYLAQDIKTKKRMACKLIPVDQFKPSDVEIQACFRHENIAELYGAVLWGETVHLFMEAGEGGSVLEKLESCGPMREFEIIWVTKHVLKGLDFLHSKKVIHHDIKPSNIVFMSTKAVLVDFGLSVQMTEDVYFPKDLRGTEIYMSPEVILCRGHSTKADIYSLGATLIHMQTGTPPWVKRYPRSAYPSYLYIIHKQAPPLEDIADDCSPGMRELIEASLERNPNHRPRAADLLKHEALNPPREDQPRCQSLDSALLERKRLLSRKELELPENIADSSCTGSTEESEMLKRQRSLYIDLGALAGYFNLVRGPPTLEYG
Sequence of MKNK2 (human) (Q9HBH9 whole entry, looked up): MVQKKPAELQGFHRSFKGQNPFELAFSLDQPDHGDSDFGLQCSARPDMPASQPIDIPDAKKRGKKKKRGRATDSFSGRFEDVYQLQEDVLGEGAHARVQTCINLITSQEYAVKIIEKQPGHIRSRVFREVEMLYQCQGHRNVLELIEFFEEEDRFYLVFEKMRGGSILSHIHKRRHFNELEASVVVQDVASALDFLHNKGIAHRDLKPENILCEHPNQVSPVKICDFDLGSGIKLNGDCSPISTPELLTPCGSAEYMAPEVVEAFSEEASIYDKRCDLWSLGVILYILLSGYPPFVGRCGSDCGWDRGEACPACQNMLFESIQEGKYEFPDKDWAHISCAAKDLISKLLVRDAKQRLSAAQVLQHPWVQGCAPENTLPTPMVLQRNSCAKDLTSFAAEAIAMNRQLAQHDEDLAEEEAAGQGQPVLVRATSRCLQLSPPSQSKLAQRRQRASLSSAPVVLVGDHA
Sequence of EPHA5 (human) (P54756 whole entry, looked up): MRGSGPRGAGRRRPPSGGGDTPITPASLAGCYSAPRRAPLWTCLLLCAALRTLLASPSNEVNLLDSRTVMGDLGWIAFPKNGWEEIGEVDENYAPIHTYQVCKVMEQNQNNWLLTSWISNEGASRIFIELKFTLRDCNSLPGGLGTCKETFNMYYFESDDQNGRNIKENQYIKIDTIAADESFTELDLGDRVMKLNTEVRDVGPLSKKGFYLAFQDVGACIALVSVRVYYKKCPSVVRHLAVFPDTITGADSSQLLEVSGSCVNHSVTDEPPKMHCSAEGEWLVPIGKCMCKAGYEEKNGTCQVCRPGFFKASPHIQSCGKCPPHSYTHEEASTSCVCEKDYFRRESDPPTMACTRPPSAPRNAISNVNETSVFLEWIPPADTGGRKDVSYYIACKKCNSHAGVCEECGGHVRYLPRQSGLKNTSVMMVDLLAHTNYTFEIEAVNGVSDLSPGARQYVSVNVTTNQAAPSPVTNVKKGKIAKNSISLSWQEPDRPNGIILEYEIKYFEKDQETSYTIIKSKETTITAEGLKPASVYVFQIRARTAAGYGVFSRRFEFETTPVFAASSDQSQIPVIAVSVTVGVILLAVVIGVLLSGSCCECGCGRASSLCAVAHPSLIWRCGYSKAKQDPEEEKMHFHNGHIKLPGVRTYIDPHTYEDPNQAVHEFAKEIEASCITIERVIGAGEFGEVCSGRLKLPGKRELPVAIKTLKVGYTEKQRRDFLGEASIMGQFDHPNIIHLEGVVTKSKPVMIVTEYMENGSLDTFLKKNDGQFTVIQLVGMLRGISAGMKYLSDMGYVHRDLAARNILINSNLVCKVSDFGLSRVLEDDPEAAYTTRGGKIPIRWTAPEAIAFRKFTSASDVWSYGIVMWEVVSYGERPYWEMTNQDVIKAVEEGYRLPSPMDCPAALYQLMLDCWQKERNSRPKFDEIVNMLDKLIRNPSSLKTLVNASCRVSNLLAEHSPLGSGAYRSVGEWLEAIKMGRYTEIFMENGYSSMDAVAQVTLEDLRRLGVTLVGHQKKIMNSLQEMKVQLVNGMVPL
Sequence of CDK5 CDK5R1 p25 (human) (Q00535 whole entry, looked up): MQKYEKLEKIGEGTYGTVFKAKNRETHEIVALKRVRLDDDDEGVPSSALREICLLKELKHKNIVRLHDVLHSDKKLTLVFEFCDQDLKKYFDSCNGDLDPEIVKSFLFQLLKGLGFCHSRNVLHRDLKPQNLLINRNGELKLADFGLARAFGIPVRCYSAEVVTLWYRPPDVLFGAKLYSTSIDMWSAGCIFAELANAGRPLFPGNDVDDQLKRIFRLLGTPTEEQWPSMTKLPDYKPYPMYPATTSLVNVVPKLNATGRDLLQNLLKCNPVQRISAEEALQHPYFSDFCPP
Sequence of CDK5 CDK5R1 p25 (human) (Q15078 whole entry, looked up): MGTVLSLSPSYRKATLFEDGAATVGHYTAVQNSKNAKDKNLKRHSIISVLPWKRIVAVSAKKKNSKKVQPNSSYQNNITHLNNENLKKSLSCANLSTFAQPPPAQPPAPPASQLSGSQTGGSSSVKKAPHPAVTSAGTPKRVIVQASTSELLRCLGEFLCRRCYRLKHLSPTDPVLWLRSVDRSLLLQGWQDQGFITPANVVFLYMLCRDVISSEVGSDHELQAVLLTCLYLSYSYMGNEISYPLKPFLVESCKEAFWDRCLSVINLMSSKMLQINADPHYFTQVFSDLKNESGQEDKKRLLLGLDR
Sequence of TSSK2 (human) (Q96PF2 whole entry, looked up): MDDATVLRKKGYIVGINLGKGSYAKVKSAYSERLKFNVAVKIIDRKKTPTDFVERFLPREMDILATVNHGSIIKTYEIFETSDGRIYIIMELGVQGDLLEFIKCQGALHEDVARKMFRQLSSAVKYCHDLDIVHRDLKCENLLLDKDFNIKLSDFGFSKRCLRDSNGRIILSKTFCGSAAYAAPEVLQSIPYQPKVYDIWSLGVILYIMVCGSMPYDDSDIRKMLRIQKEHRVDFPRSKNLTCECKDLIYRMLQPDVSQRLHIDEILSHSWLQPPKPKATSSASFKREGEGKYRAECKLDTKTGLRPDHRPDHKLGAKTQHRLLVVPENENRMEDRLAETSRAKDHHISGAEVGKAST
Sequence of NUAK2 (human) (Q9H093 whole entry, looked up): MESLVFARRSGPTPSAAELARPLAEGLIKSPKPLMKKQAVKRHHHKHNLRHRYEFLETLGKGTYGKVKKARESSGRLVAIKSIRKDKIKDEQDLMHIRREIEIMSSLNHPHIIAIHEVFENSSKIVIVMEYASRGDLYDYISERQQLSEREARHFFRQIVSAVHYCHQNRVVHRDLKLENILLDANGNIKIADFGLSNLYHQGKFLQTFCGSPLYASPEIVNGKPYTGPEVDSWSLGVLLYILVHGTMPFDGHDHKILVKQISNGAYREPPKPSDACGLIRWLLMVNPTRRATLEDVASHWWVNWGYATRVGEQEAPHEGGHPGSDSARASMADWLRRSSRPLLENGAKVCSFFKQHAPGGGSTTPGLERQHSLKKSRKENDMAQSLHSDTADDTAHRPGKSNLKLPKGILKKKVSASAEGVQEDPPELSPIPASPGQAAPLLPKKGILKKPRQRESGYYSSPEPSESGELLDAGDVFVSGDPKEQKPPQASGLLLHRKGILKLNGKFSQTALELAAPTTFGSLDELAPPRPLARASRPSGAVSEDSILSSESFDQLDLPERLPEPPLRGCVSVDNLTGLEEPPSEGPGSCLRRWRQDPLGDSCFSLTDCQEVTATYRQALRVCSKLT

Compound: CN(C)S(=O)(=O)c1ccc2c(c1)/C(=C/c1cc3c([nH]1)CCCC3)C(=O)N2
- residual activity (AKT2 (human)): 105%
- residual activity (BMX (human)): 103%
- residual activity (CDK5 CDK5R1 p25 (human)): 72.9%
- residual activity (CDK6 CCND3 (human)): 84.2%
- residual activity (CHEK1 (human)): 76.3%
- residual activity (CSNK1G2 (human)): 93.8%
- residual activity (DYRK2 (human)): 103%
- residual activity (EPHA5 (human)): 85.1%
- residual activity (EPHA7 (human)): 91.1%
- residual activity (EPHB3 (human)): 105%
- residual activity (FYN (human)): 33.1%
- residual activity (HCK (human)): 31.6%
- residual activity (HIPK3 (human)): 107%
- residual activity (MAP3K8 (human)): 94.6%
- residual activity (MAP4K4 (human)): 46.1%
- residual activity (MAPK3 (human)): 102%
- residual activity (MARK3 (human)): 68.9%
- residual activity (MARK4 (human)): 51.5%
- residual activity (MATK (human)): 104%
- residual activity (MELK (human)): 89.1%
- residual activity (MET (human)): 92.2%
- residual activity [1]: 108%
- residual activity (MKNK2 (human)): 84.1%
- residual activity (MST4 (human)): 45.6%
- residual activity (NEK11 (human)): 82.5%
- residual activity (NUAK2 (human)): 95.1%
- residual activity (PBK (human)): 99.7%
- residual activity (PIM1 (human)): 101%
- residual activity (PKN1 (human)): 91.2%
- residual activity (PNCK (human)): 95.7%
- residual activity (PRKCD (human)): 95.5%
- residual activity (PRKCH (human)): 78.5%
- residual activity (PRKX (human)): 98.1%
- residual activity (ROCK1 (human)): 95.2%
- residual activity (RPS6KA1 KD1 KD2 (human)): 68.1%
- residual activity (RPS6KA2 KD1 KD2 (human)): 52.8%
- residual activity (STK10 (human)): 9.53%
- residual activity (STK11 (human)): 90.4%
- residual activity (TSSK2 (human)): 91.8%
- residual activity [2]: 11.4%
- residual activity (VRK1 (human)): 104%

Compound: COc1ccc(Cl)cc1NC(=O)Nc1cc(C)nc2ccccc12
- residual activity (AKT2 (human)): 94.9%
- residual activity (BMX (human)): 101%
- residual activity (CDK5 CDK5R1 p25 (human)): 105%
- residual activity (CDK6 CCND3 (human)): 99%
- residual activity (CHEK1 (human)): 96.6%
- residual activity (CSNK1G2 (human)): 98.5%
- residual activity (EPHA5 (human)): 123%
- residual activity (EPHA7 (human)): 99.7%
- residual activity (FYN (human)): 100%
- residual activity (HCK (human)): 101%
- residual activity (HIPK3 (human)): 99.1%
- residual activity (MAP3K8 (human)): 99.5%
- residual activity (MAP4K4 (human)): 84.7%
- residual activity (MAPK3 (human)): 94.6%
- residual activity (MARK3 (human)): 126%
- residual activity (MARK4 (human)): 79.7%
- residual activity (MATK (human)): 98.2%
- residual activity (MELK (human)): 106%
- residual activity (MET (human)): 96.6%
- residual activity [1]: 101%
- residual activity (MKNK2 (human)): 90.3%
- residual activity (MST4 (human)): 77.6%
- residual activity (NEK11 (human)): 94.6%
- residual activity (NUAK2 (human)): 100%
- residual activity (PBK (human)): 98.5%
- residual activity (PIM1 (human)): 98.1%
- residual activity (PKN1 (human)): 104%
- residual activity (PNCK (human)): 98.7%
- residual activity (PRKCD (human)): 96.3%
- residual activity (PRKCH (human)): 88.6%
- residual activity (PRKX (human)): 98%
- residual activity (ROCK1 (human)): 100%
- residual activity (RPS6KA1 KD1 KD2 (human)): 77.8%
- residual activity (RPS6KA2 KD1 KD2 (human)): 99.8%
- residual activity (STK10 (human)): 90.9%
- residual activity (STK11 (human)): 103%
- residual activity (STK17A (human)): 98.1%
- residual activity (TSSK2 (human)): 94%
- residual activity [2]: 99.7%
- residual activity (VRK1 (human)): 84.6%

Compound: CS(=O)(=O)CCNCc1ccc(-c2ccc3ncnc(Nc4ccc(OCc5cccc(F)c5)c(Cl)c4)c3c2)o1
- residual activity (AKT2 (human)): 105%
- residual activity (BMX (human)): 105%
- residual activity (CDK5 CDK5R1 p25 (human)): 90.4%
- residual activity (CDK6 CCND3 (human)): 120%
- residual activity (CHEK1 (human)): 100%
- residual activity (CSNK1G2 (human)): 99.5%
- residual activity (DYRK2 (human)): 102%
- residual activity (EPHA5 (human)): 103%
- residual activity (EPHA7 (human)): 95.6%
- residual activity (FYN (human)): 99.4%
- residual activity (HCK (human)): 86.5%
- residual activity (HIPK3 (human)): 99.1%
- residual activity (MAP3K8 (human)): 99.7%
- residual activity (MAP4K4 (human)): 111%
- residual activity (MAPK3 (human)): 94.8%
- residual activity (MARK3 (human)): 95.9%
- residual activity (MARK4 (human)): 104%
- residual activity (MATK (human)): 75.9%
- residual activity (MELK (human)): 88.5%
- residual activity (MET (human)): 84.1%
- residual activity [1]: 94.5%
- residual activity (MKNK2 (human)): 97.3%
- residual activity (MST4 (human)): 110%
- residual activity (NEK11 (human)): 107%
- residual activity (NUAK2 (human)): 95.1%
- residual activity (PBK (human)): 105%
- residual activity (PIM1 (human)): 99%
- residual activity (PKN1 (human)): 106%
- residual activity (PNCK (human)): 98.1%
- residual activity (PRKCD (human)): 103%
- residual activity (PRKCH (human)): 110%
- residual activity (PRKX (human)): 111%
- residual activity (ROCK1 (human)): 108%
- residual activity (RPS6KA1 KD1 KD2 (human)): 105%
- residual activity (RPS6KA2 KD1 KD2 (human)): 84%
- residual activity (STK10 (human)): 94.8%
- residual activity (STK11 (human)): 106%
- residual activity (STK17A (human)): 89.7%
- residual activity (TSSK2 (human)): 89.9%
- residual activity [2]: 95.5%
- residual activity (VRK1 (human)): 101%
